The values that follow come from ChEMBL document CHEMBL1770057, “Synthesis and antibacterial activity of alaremycin derivatives for the porphobilinogen synthase” (Bioorg Med Chem Lett, 2011).

Experiment [1] can be described thus: Inhibition of Pseudomonas fluorescens porphobilinogen synthase by PBGS assay.
The test system of the next experiment is Pseudomonas fluorescens. Put plainly: Ratio of IC50 of Alaremycin to IC50 of compound for Pseudomonas fluorescens porphobilinogen synthase.

In the case of `CC(=O)N[C@@H](C)C(=O)CCC(=O)O`, in experiment [1], 1100 µM corresponded to half-maximal inhibition (IC50). This lies in the millimolar range.

In experiment [1], `C=C(NC(C)=O)C(=O)CCC(=O)O` [ALAREMYCIN] registered a half-inhibitory concentration (IC50) of 2600 µM.

In the case of `C=C(NC(=O)CC(F)(F)F)C(=O)CCC(=O)O`, 900 µM corresponded to half-maximal inhibition in experiment [1] (IC50).

`CC(=O)N[C@H](C)C(=O)CCC(=O)O` [ALAREMYCIN 2] yielded an IC50 in experiment [1] of 700 µM.

In experiment [1], `C[C@@H](NC(=O)C(F)(F)F)C(=O)CCC(=O)O` registered a half-maximal inhibitory concentration (IC50) of 4100 µM.

Consider `C=C(NC(=O)CCC(F)(F)F)C(=O)CCC(=O)O`, for which, in experiment [1], it took 51 µM to reach half-maximal inhibition (IC50). Moreover, in the experiment with Pseudomonas fluorescens, the Ratio IC50 was 50.

Regarding `C[C@H](NC(=O)C(F)(F)F)C(=O)CCC(=O)O`, in experiment [1], half-maximal inhibition (IC50) required 3000 µM. That is a millimolar value.

Turning to `O=C(O)CCC(=O)CNC(=O)CC(F)(F)F`, the 50% inhibitory concentration (IC50) in experiment [1] turned out to be 500 µM.

As to `CC(=O)NCC(=O)CCC(=O)O`, the half-inhibitory concentration (IC50) in experiment [1] was 2500 µM.

In the case of `O=C(O)CCC(=O)CNC(=O)C(F)(F)F`, in experiment [1], the midpoint of inhibition, the IC50, lay at 8000 µM.

On to `O=C(O)CCC(=O)CNC(=O)CCC(F)(F)F`, for which it took 1300 µM to reach half-maximal inhibition in experiment [1] (IC50). Compared with the last molecule, the IC50 is about 6.2-fold lower.

In the case of `C=C(NC(=O)C(F)(F)F)C(=O)CCC(=O)O`, in experiment [1], half-maximal inhibition (IC50) was put at 22 µM. In the experiment with Pseudomonas fluorescens, the Ratio IC50 was 100.

Usually IC50 stands for the midpoint of a concentration-inhibition curve. Low readings indicate greater potency, high ones weaker potency.
